Measured values from patent US20020169123A1, “Regulating apoptosis in TRAIL-resistant cancer cells, while protecting normal, non-cancerous cells” (THE TRUSTEES OF THE UNIVERSITY OF PENNSYLVANIA, priority 2001, published 2002).

Key:
[1] = tested on: TRAIL-sensitive esophageal cancer cells; assay: active-caspase 3 assay, effect of z-LEHD-FMK on TRAIL-sensitive cancer cells; format: cell-based, human; conditions: extent of apoptosis slightly reduced
Method: Next, to determine the effect of z-LEHD-FMK on TRAIL-sensitive esophageal cancer cells (i.e., could z-LEHD-FMK also protect TRAIL-sensitive esophageal cancer cells from apoptosis), an active-caspase 3 assay was performed, as described above in the assay shown in FIG. 4A.

[2] = tested on: normal esophageal epithelial EPC2 cells; assay: effect of Ad-ILZ-TR derived TRAIL; format: cell-based; conditions: EPC2 cells in the presence of z-LEHD-FMK
Source text: (§1) To make an adenovirus expressing extra-cellular portion of TRAIL (amino acids (Aa) 95 to 281), pAdTRACK/CMV and pAdEasy systems were used as previously described (He et al., Proc. Natl. Acad. Sci. USA 95:2509-2514 (1998)). In short, the extra-cellular portion of TRAIL was amplified by PCR (polymerase chain reaction). The amplified fragment was fused directly to the signal peptide of a mouse Ig κ chain, which is secreted into the media from the cells. Then, an isoleucine zipper (ILZ) fragment was inserted between the signal peptide and TRAIL to induce self-trimerization (Harbury et al., Science 262:1401-1407 (1993)). The final resulting construct was cloned into pAdTRACK/CMV, and then a recombinant plasmid was generated in BJ5183 E. coli by co-transforming PmeI-digested TRAIL-cloned pAdTRACK/CMV and pAdEASY.
(§2) The recombinant plasmid was digested with PacI, and was used for transfection into […] 293 cells using Superfect (QIAGEN, Valencia, Calif.). Approximately five (5) days after transfection, when comet-like patches of the green cells appeared, the cells were harvested. The viruses were amplified and purified as previously described (El-Deiry et al., Cell 75:817-825 (1993)). The infectivity of the viruses was checked by the observation of green fluorescence using a fluorescence microscope. […]

[3] = tested on: TRAIL-resistant HCE4, TE3, and TE5 cells; assay: active-caspase 3 assay, adriamycin plus TRAIL; format: cell-based, human; conditions: z-LEHD-FMK 20 μM added 2 hours before TRAIL
Method: Cells were treated with TRAIL (50 ng/mL final concentration) and 1 μg/mL of anti-6× His (N-terrninal histidine antibody) for 4 hours or for 16 hours. The caspase inhibitor was used at a final concentration of 20 μM, and was added 2 hours prior to the addition of TRAIL. When the cells were treated with both cycloheximide (CHX) and TRAIL, CHX (10 μg/mL final concentration) was added 6 hours before the addition of TRAIL. In the case of adriamycin, cells were pre-treated with adriamycin (0.5 μM final concentration) for 16 hours before the addition of TRAIL.
(§3) For detecting apoptosis mediated by TRAIL, an active-caspase 3 assay was performed using Cytofix/Cytoperm kit (Pharmingen, San Diego, Calif.), as previously described (Kim et al., Int. J. Oncol. 18:241-247 (2001)). Briefly, using standard techniques, 5×10^5 cells were seeded into a 6 well plate, after which, the cells were treated with TRAIL cross-linked with anti-6× His antibody. […] After washing, the cells were probed with 0.125 μg/μl of Phycoerythrin (PE)-conjugated goat anti-rabbit secondary antibody (Ab) (CALTAG Laboratories, Burlingame, Calif.) for 20 minutes in the dark. The intensity of PE was analyzed by flow cytometry using a Beckman-Coulter Epics Elite analyzer.
Accordingly, adriamycin was tested to determine whether its combination with TRAIL could induce synergistic cell killing in TRAIL-resistant esophageal cancer cells. TRAIL-resistant HCE4, TE3, and TE5 cells were pre-treated with 0.5 μM adriamycin for 16 hours, followed by incubation for 4 hours in the presence of TRAIL. z-LEHD-FMK (20 μM final concentration) was added 2 hours before the addition of TRAIL. An active-caspase 3 assay was used to determine whether apoptosis occurred.
Next, z-LEHD-FMK was tested in the HCE4, TE3 and TE5 cells to determine the protective effect of z-LEHD-FMK, if any, on the synergistic cell death driven by the combination of adriamycin with TRAIL.

[4] = tested on: EPC2 normal esophageal epithelial cells
Method: Normal human primary epithelial cells (EPC2, provided by Dr. Anil Rustgi, University of Pennsylvania) and primary human foreskin keratinocytes (HFK, provided by Dr. John C. Ansel, Emory University), were grown in Keratinocyte-SFM medium (Gibco BRL, Rockville, Md.) containing bovine pituitary extract (40 μg/mL) and epidermal growth factor (1 ng/mL). The primary epithelial cells were used at passage 4 or 5.
The N-terminal histidine (His) tagged recombinant human TRAIL (rhTRAIL, Thr-95 to Gly-281) was obtained from R&D Systems (Minneapolis, Minn.). A mouse monoclonal anti-6× His antibody (R&D Systems) was used for cross-linking the rhTRAIL. […] Cells were treated with TRAIL (50 ng/mL final concentration) and 1 μg/mL of anti-6× His (N-terrninal histidine antibody) for 4 hours or for 16 hours. The caspase inhibitor was used at a final concentration of 20 μM, and was added 2 hours prior to the addition of TRAIL. […] In the case of adriamycin, cells were pre-treated with adriamycin (0.5 μM final concentration) for 16 hours before the addition of TRAIL.
as §3

normal human hepatocytes = conditions: Ozoren et al., 2000; cited from earlier work
[5] = tested on: EPC2-GFP and TRAIL-sensitive TE2 mixed culture; assay: active-caspase 3 assay in mixed culture; format: cell-based, human; conditions: TRAIL 4 hours with z-LEHD-FMK
Method: Finally, to confirm the observation that there was preferential protection of z-LEHD-FMK on normal esophageal epithelial cells in TRAIL-mediated apoptosis, but no similar protection afforded to TRAIL-sensitive esophageal cancer cells, both EPC2-GFP (2×10^5 cells) and TRAIL-sensitive TE2 (5×10^5 cells) were grown as a mixed culture in a 6-well plate. The cells were treated with TRAIL for 4 hours in the presence, or absence, of z-LEHD-FMK. An active-caspase 3 assay was performed, and the two populations within the mixed-cells were distinguished by the presence (EPC2-GFP), or absence (TE2), of GFP. […] Experiments were done in duplicate (mean value±SD).

[6] = tested on: all cells, including cancer cells; assay: protection from the killing effect of TRAIL by caspase inhibitors; format: cell-based; conditions: stated without experimental detail
[7] = tested on: TRAIL-sensitive SW480 colon cancer cells; assay: apoptosis-inducing activity of adenovirus-expressed TRAIL; format: cell-based, human; conditions: z-VAD-FMK 20 μM added 1 hour after onset of virus infection
Source text: as §1, §2

z-LEHD-FMK (HELM PEPTIDE1{[O=C(OCc1ccccc1)[*:2]].L.E.H.D.[FC[*:1]]}$$$$V2.0; SMILES CC(C)C[C@H](NC(=O)OCc1ccccc1)C(=O)N[C@@H](CCC(=O)O)C(=O)N[C@@H](Cc1c[nH]cn1)C(=O)N[C@@H](CC(=O)O)C(=O)CF)
effect of z-LEHD-FMK on TRAIL-mediated apoptosis [1]: still underwent apoptosis | protection from cell death by Ad-ILZ-TR derived TRAIL [2]: completely protected from cell death | effect of z-LEHD-FMK on cell death by adriamycin plus TRAIL ([3]; HCE4 cells): still killed in a synergistic way | effect of z-LEHD-FMK on cell death by adriamycin plus TRAIL ([3]; TE3 and TE5 cells): almost completely blocked cell death | protection from cell killing by TRAIL plus adriamycin ([4]; EPC2 cells in the presence of z-LEHD-FMK): almost completely protected from cell killing | protection from TRAIL-mediated apoptosis ([4]; EPC2 cells, TRAIL 50 ng/mL 4 hours, z-LEHD-FMK 20 μM added 2 hours before TRAIL): completely protected | rescue from TRAIL-mediated apoptosis (normal human hepatocytes): could rescue normal human hepatocytes | TRAIL-mediated apoptosis in presence of z-LEHD-FMK, TE2 population ([5]; mixed culture with EPC2-GFP): continued to undergo apoptosis | protection from TRAIL-mediated apoptosis, EPC2-GFP population ([5]; mixed culture with TE2): almost completely protected

z-VAD-FMK
protection from the killing effect of TRAIL [6]: protect all cells, including cancer cells, from the killing effect of TRAIL | cleavage of caspase 3 and PARP in Ad-ILZ-TR infected cells with inhibitor [7]: no cleavage was observed
